Tests used:
Solubility = format: physicochemical; conditions: data not shown
NLK = molecular target: T1, NLK (Homo sapiens, UniProt Q9UBE8); test: Kinase assay of NLK immunopurified from treated differentiating human progenitors; format: cell-based; design: 5000 cells per treatment were lysed and immunopurified NLK was subjected to in vitro kinase assay; endogenous in cells; host or cells: human cord blood CD34+ HSPCs transduced with shLuc / shRPS19 / shRPL11, differentiating in erythroid medium; conditions: NLK from ginsenoside Rb1-treated RPS19-insufficient progenitors
T1 sequence (Q9UBE8 1-527): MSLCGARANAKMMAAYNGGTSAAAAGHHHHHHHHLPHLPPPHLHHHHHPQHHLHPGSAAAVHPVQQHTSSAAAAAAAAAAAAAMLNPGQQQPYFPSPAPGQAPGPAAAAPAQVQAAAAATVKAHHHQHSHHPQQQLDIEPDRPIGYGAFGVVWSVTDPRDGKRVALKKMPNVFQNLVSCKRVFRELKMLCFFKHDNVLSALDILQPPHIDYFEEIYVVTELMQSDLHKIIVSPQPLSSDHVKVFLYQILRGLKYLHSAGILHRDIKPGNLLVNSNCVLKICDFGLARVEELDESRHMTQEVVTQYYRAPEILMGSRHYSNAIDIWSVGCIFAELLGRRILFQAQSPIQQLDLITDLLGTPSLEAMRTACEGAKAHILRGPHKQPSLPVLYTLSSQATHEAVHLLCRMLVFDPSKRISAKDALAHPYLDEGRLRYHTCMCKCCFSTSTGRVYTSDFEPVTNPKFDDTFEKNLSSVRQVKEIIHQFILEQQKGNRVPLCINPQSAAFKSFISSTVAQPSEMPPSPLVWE

[1] = system: miR-26a and other miRNAs (let-7, miR-30, miR-181, miR-199, miR-144); test: miRNA expression by qRT-PCR in differentiating human CD34+ progenitors; format: cell-based
Experimental: FIG. 14. Metformin-mediated upregulation of miR-26a in human progenitors suppresses NLK expression. (Panel A) Human CD34+ (upper) and murine Lin-Kit+ (lower) progenitors were differentiated for 8 days in the presence or absence of metformin and the levels of indicated miRNAs were assessed by qRT-PCR. (Panel B) K562 cells stably expressing the luciferase gene coupled to the NLK 3′UTR were mock transfected, transfected with indicated miRNA mimetics, or treated with metformin, and cultured in the presence or absence of metformin for 72 hrs. After lysis, luciferase activity was determined and endogenous NLK and GAPDH protein expression was analyzed by Western blot. (Panel C) K562 cells were mock transfected, or transfected with either miR-34 or miR-26 sponges, prior to being left untreated or treated with metformin for 72 hrs. Lysed cells were subjected to luciferase assay and western blotting to examine NLK and GAPDH protein expression. […] Statistics: two-tailed Student's t test, significant *P<0.05
FIG. 15. MiR-26a mimetic substitutes for metformin in improving erythropoiesis in RPS19-insufficiency. (Panel A) Human CD34+ cells were transduced with shRNA against a control (shLuc) or RPS19 (shRPS19) and transfected with a miR-26a mimetic or a mock control. After differentiation in the absence or presence of metformin for 12 days, cells were counted and the percentage of CD235+ erythroblasts determined by flow cytometry. The calculated CD235+ population of each treatment group is represented as a percentage of the untreated control group (upper). In parallel, qRT-PCR was performed to determine mRNA expression of NLK (middle) and miR-26a (lower). (Panel B) Lin-Kit+ progenitors for RPL11+/+ and RPL+/lox mice were mock transfected or transfected with miR-26a mimetic and differentiated for 8 days. Cells were subjected to counting and the percentage of Ter119+ erythroblasts determined (upper) in conjunction with qRT-PCR examining NLK (middle) and miR-26a (lower) mRNA expression. […] Statistics: two-tailed Student's t test, significant *P<0.05
MessengerRNA was quantified as described (5). MicroRNA was quantified using TaqMan® Small RNA Assays (Applied Biosystems) as per manufacturer's directions and normalized to snoRNA.

human NLK 3′UTR = test: Luciferase fused to human NLK 3′UTR in K562 cells; format: cell-based
Experimental: FIG. 12. NLK 3′UTR facilitates metformin-mediated NLK suppression. (Panel A) K562 cells stabling expressing luciferase alone (top portion), luciferase expressed behind a minimal promoter and the NLK proximal promoter (2nd portion), luciferase immediately upstream of the human NLK 3′UTR (3rd portion) or luciferase with the SATB1 3′UTR (bottom portion) were grown in the presence of 0, 0.5, 5.0 or 50.0 mM of metformin for 72 hrs. Cell were pelleted and either processed for luciferase assay (left portion) or western blot analysis of endogenous NLK (upper right portion) or GAPDH (lower right portion). (Panel B) Luciferase immediately upstream of the human (upper), murine (middle) and zebrafish (lower) NLK 3′UTR were transiently transfected into human K562 (left) and cultured with indicated concentrations of metformin for 72 hrs. Lysates were assessed for luciferase activity and endogenous NLK and GAPDH protein expression by Western blotting. […] Statistics: two-tailed Student's t test, significant *P<0.05
FIG. 14. Metformin-mediated upregulation of miR-26a in human progenitors suppresses NLK expression. (Panel A) Human CD34+ (upper) and murine Lin-Kit+ (lower) progenitors were differentiated for 8 days in the presence or absence of metformin and the levels of indicated miRNAs were assessed by qRT-PCR. […] After lysis, luciferase activity was determined and endogenous NLK and GAPDH protein expression was analyzed by Western blot. […]
The NLK minimal promoter (1019 5′ nucleotides) and or NLK 3′UTR (1885 3′ nucleotides) were cloned upstream, or downstream respectively, of firefly luciferase and transfected into K562 cells. Transfection efficiency was normalized by RFP expression and firefly luciferase activity determined by Luciferase Assay Reagent II (LAR II) from Dual-Luciferase® Reporter (DLR™) Assay System (Promega). Luminescence was assessed using a Synergy™ H1 hybrid multi-mode microplate reader (BioTek®). […]

murine NLK 3′UTR = test: Luciferase fused to murine NLK 3′UTR in K562 cells; format: cell-based, mouse; conditions: transient transfection in K562, metformin 72 hrs

Question: For `Fc1ccc(Cl)cc1-c1nc(Nc2ccncc2)c2nccnc2n1` [SD208], which solubility (Solubility) is on record?
Answer: poor solubility

Question: Which “reduced NLK kinase activity” value (NLK) does the source give for `CC(C)=CCC[C@](C)(O[C@@H]1O[C@H](CO[C@@H]2O[C@H](CO)[C@@H](O)[C@H](O)[C@H]2O)[C@@H](O)[C@H](O)[C@H]1O)[C@H]1CC[C@]2(C)[C@@H]1[C@H](O)C[C@@H]1[C@@]3(C)CC[C@H](O[C@@H]4O[C@H](CO)[C@@H](O)[C@H](O)[C@H]4O[C@@H]4O[C@H](CO)[C@@H](O)[C@H](O)[C@H]4O)C(C)(C)[C@@H]3CC[C@]12C` [ginsenoside Rb1] here?
Answer: 44.8%

Question: Which miR-26a level ([1]; RPS19-insufficiency) does the source give for `CN(C)C(=N)N=C(N)N` [metformin] here?
Answer: 2.5 fold

Question: What about the miR-26a level ([1]; control) of the same compound?
Answer: 2.4 fold

Question: What about the “upregulation of miR-26a” value ([1]; human CD34+ progenitors in erythroid media, metformin, 8 days) of the same compound?
Answer: 2.4 fold

Question: And the “expression of other miRNA species (let-7, miR-30, miR-181, miR-199, miR-144)” value ([1]; human CD34+ progenitors, metformin)?
Answer: did not alter

Question: And the “reduction of luciferase activity (wild-type human NLK 3′UTR)” value (human NLK 3′UTR; K562, miRNA mimetics or metformin, 72 hrs)?
Answer: 72.5%

Question: And the “decrease of luciferase (NLK 3′UTR fusion)” value (human NLK 3′UTR; stable K562, 50 mM metformin, 72 hrs)?
Answer: 67.5%

Question: And the “decrease of luciferase activity, human 3′UTR” value (human NLK 3′UTR; transient transfection in K562, metformin 72 hrs)?
Answer: 65.4%

Question: What about the “decrease of luciferase activity, murine 3′UTR” value (murine NLK 3′UTR) of the same compound?
Answer: 61.6%
